In patent US8604217B2, “Compound, a process for its preparation, a pharmaceutical composition, use of a compound, a method for modulating or regulating serine/threonine kinases and a serine/threonine kinases modulating agent” (Selvita S.A., priority 2009, dated 2013):
Read-outs that look alike come from different tables or passages of the source.

Experiments:
[1] = system: human myelomonocytic, biphenotypic leukemia MV4-11 cells; assay: Growth inhibition test (MTS) on MV4-11 cells; type: cell-based; details: read-out: MV-4-11 ED50
Method: (§1) Ten thousand cells of human myelomonocytic, biphenotypic leukemia MV4-11 were inoculated into each well of a 96-well microplate (manufactured by Corning Corp.) using Iscove's MDM medium (culture medium) containing 10% fetal calf serum (FCS). Next day, a dimethyl sulfoxide (DMSO) solution of each test compound prepared in a concentration of 10 mmol/L was further diluted with culture medium to the desired concentrations (0.1, 0.5, 1, 2.5, 5 and 10 micromol/L), and the diluted solution was added to each well. The individual wells were further cultured in 5% carbon dioxide at 37° C. for 72 hours. After completion of the culture, 10 μl MTS (3-(4,5-Dimethyl-2-thiazolyl)-5-(carboxymethoxyphenyl)-2-(4-sulfophenyl)-2H-tetrazolium, inner salt assay (CellTiter96® AQueous One Solution Cell Proliferation Assay, Promega) was added to each well, and culturing was performed in 5% carbon dioxide at 37° C. for 2 hours. Using a microplate spectrophotometer (Synergy 2 multi-mode microplate reader (BioTek)), the absorbance of each well was measured at 490 nm. The value for cells not incorporated with a test compound was designated as 100%. By comparing these values with the absorbance difference obtained at the well in which each test compound was added, the cell viability (% viability) after treatment with the test compound was calculated.

PIM-1 = PIM-1 (Homo sapiens (Human), UniProt P11309); assay: Luminometric kinase assay for PIM1 kinase (Kinase-Glo); type: biochemical; details: 1 μM ATP, 25 min at RT
Method: Kinase assay was performed using luminescent Kinase-Glo® (Promega) system. The Kinase-Glo® Luminescent Kinase Assay Platform provides a homogeneous, high-throughput screening method for measuring kinase activity by quantifying the amount of ATP remaining in solution following a kinase reaction. The luminescent signal is correlated with the amount of ATP present and is inversely correlated with the kinase activity. Appropriate amounts of both kinase and substrate were mixed in 96-well, white wall plate in the reaction buffer (8 mM MOPS/NaOH, pH7.0, 0.2 mM EDTA, 2 mM MgCl2). Tested compounds were diluted in DMSO and serial dilutions starting with 1 μM were added to the palates. Reaction was initiated by adding 1 μM of ATP solution and conducted for 25 min. at RT. Luminescent signal was detected by adding Kinase-Glo® reagent and measured using a microplate spectrophotometer (Synergy 2 multi-mode microplate reader (BioTek)). IC50 values were obtained by fitting sigmoidal dose-response curve (variable slope) using GraphPad Prism software.

[2] = system: human acute lymphocytic leukemia E6.1 Jurkat cells; assay: Growth inhibition test (MTS) on E6.1 Jurkat cells; type: cell-based; details: 72 hours, read-out: Jurkat ED50
Method: as §1, with “Twenty” for “Ten”, “acute lumphocytic” for “myelomonocytic, biphenotypic”, “E6.1 Jurkat” for “MV4-11”, “[…]” for “Iscove's MDM”

[3] = system: human hepatoma HepG2 cells; assay: Growth inhibition test (MTS) on HepG2 cells; type: cell-based; details: 72 hours, read-out: HepG2 ED50
Method: as §1, with “Two” for “Ten”, “hepatoma HepG2” for “myelomonocytic, biphenotypic leukemia MV4-11”, “DMEM” for “Iscove's MDM”

[4] = system: human colorectal adenocarcinoma SW480 cells; assay: Growth inhibition test (MTS) on SW480 cells; type: cell-based; details: read-out: SW480 ED50
Method: as §1, with “Two” for “Ten”, “colorectal adenocarcinoma SW480” for “myelomonocytic, biphenotypic leukemia MV4-11”, “Corp.), and” for “Corp.)”, “DMEM/Ham's F121:1” for “Iscove's MDM”, “5%” for “10%”

[5] = system: human prostate adenocarcinoma PC3 cells; assay: Growth inhibition test (MTS) on PC3 cells; type: cell-based; details: for IC50: Homo sapiens, PC-3, 72 hours, read-out: PC-3 ED50
Source text: as §1, with “Two” for “Ten”, “prostate adenocarcinoma PC3” for “myelomonocytic, biphenotypic leukemia MV4-11”, “Corp.), and” for “Corp.)”, “F12K (Ham's F12:[…] 1:1)” for “Iscove's MDM”

[6] = system: human breast adenocarcinoma MCF7 cells; assay: Growth inhibition test (MTS) on MCF7 cells; type: cell-based; details: read-out: MCF-7 ED50
Method: as §1, with “Two” for “Ten”, “breast adenocarcinoma MCF7” for “myelomonocytic, biphenotypic leukemia MV4-11”, “Corp.), and” for “Corp.)”, “DMEM” for “Iscove's MDM”

Chain of PIM-1 (P11309 whole entry): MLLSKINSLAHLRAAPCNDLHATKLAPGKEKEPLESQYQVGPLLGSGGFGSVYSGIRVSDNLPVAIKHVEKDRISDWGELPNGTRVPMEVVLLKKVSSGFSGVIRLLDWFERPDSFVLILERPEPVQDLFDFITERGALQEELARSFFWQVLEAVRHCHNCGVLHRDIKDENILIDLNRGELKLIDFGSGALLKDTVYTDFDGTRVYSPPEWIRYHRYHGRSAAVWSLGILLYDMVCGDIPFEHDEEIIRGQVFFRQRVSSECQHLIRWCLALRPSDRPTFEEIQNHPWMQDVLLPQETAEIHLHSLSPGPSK

SMILES	IC50 ([1]; Homo sapiens, MV4-11, 72 hours) [µM]	IC50 (PIM-1) [µM]	IC50 [2] [µM]	IC50 [3] [µM]	IC50 ([4]; 72 hours) [µM]	IC50 [5] [µM]	IC50 ([4]; Homo sapiens, SW480, 72 hours) [µM]	IC50 ([6]; Homo sapiens, MCF7, 72 hours) [µM]	IC50 ([1]; 72 hours) [µM]	PC-3 ED50 ([5]; 72 hours) [µM]	IC50 ([6]; 72 hours) [µM]
Brc1c(Br)c(Br)c2[nH]c(NCCCN3CCOCC3)nc2c1Br [Compound 192, 4,5,6,7-tetrabromo-N-(3-morpholinopropyl)-1H-benzo[d]imidazol-2-amine]	5.13	0.0454	7.67	6.23							
CN(C)CCCN1CCN(c2nc3c(Br)c(Br)c(Br)c(Br)c3[nH]2)CC1 [Compound 75, 3-(4-(4,5,6,7-tetrabromo-1H-benzo[d]imidazol-2-yl)piperazin-1-yl)-N,N-dimethylpropan-1-amine]	3.33	0.279	7.79	5.85							
Brc1c(Br)c(Br)c2[nH]c(NCCCN3CCCC3)nc2c1Br [Compound 58]	1.54	0.0257	3.37	2.93							
OC1CCC(Nc2nc3c(Br)c(Br)c(Br)c(Br)c3[nH]2)CC1 (stereo not drawn) [Compound 309, 4-(4,5,6,7-tetrabromo-1H-benzo[d]imidazol-2-ylamino)cyclohexanol]	5.54	0.0159	8.18	4.87							
Oc1ccc(CCNc2nc3c(Br)c(Br)c(Br)c(Br)c3[nH]2)cc1 [Compound 243, 4-(2-(4,5,6,7-tetrabromo-1H-benzo[d]imidazol-2-ylamino)ethyl)phenol]	6.84		6.12	9							
Brc1c(Br)c(Br)c2[nH]c(NCCN3CCOCC3)nc2c1Br [Compound 16, 4,5,6,7-tetrabromo-N-(2-morpholinoethyl)-1H-benzo[d]imidazol-2-amine]		0.107		8.78	9.68						
Brc1c(Br)c(Br)c2[nH]c(Nc3ccccn3)nc2c1Br [Compound 329, 4,5,6,7-tetrabromo-N-(pyridin-2-yl)-1H-benzo[d]imidazol-2-amine]		0.047	4.45			4.69					
Brc1c(Br)c(Br)c2[nH]c(N3CCN(CCN4CCCCC4)CC3)nc2c1Br [Compound 76, 4,5,6,7-tetrabromo-2-(4-(2-(piperidin-1-yl)ethyl)piperazin-1-yl)-1H-benzo[d]imidazole]	5.27	0.117	3.06	4.54							
Fc1ccc(CNc2nc3c(Br)c(Br)c(Br)c(Br)c3[nH]2)cc1F [Compound 296, N-(3,4-difluorobenzyl)-4,5,6,7-tetrabromo-1H-benzo[d]imidazol-2-amine]	4.15	0.17	8.12	5.91		4.21					
Brc1c(Br)c(Br)c2[nH]c(N3CCOCC3)nc2c1Br [Compound 19, 4,5,6,7-tetrabromo-2-morpholino-1H-benzo[d]imidazole]	6.83	0.0294	4.63								
N=C(N)N1CCN(c2nc3c(Br)c(Br)c(Br)c(Br)c3[nH]2)CC1 [Compound 392, 4-(4,5,6,7-tetrabromo-1H-benzo[d]imidazol-2-yl)piperazine-1-carboxamidine]	7.55	0.00672				4.48	1.85				
OCCCN1CCN(c2nc3c(Br)c(Br)c(Br)c(Br)c3[nH]2)CC1 [Compound 383, 3-(4-(4,5,6,7-tetrabromo-1H-benzo[d]imidazol-2-yl)piperazin-1-yl)propan-1-ol]	3.43	0.0944		7.12		8.3	3.72	8.32			
Brc1c(Br)c(Br)c2[nH]c(N3CCN(Cc4cn5ccccc5n4)CC3)nc2c1Br [Compound 387, 2-(4-((H-imidazo[1,2-a]pyridin-2-yl)methyl)piperazin-1-yl)-4,5,6,7-tetrabromo-1H-benzo[d]imidazole]					3.27				2.13	5.49	9.25
